Data taken from patent US9872874B2 (Cyclacel Limited, priority 2012, dated 2018).

What was measured:
colon cancer = conditions: model of colon cancer, compared with gemcitabine or 5-FU; cited from earlier work
[1] = phase I, single agent; cited from earlier work
[2] = Phase I study of sequential sapacitabine and seliciclib, Schedule 2: dose escalation, MTD, DLT and adverse events; type: in vivo; conditions: Schedule 2: sapacitabine b.i.d. days 1-7, seliciclib b.i.d. days 8-10, 11 days of rest; 27 patients
Protocol: Phase I Study of Sequential Sapacitabine and Seliciclib in Patients with Advanced Solid Tumors
(§1) At least 3 patients were evaluated per dose level.

H2AX staining = assay: Skin biopsies to assess DNA damage (H2AX staining) in the Phase I study; type: in vivo, patients
Protocol: as §1

A549 cells = conditions: twenty-four hour treatment; cited from earlier work

| Structure (SMILES) | increasing survival and preventing spread of colon cancer metastases to the liver (colon cancer) | dose limiting toxicity [1] | tolerability in humans [1] | MTD and recommended phase II dose (RP2D) [2] [mg b.i.d.] | increase in H2AX staining post-sapacitabine (H2AX staining; day 8 vs pre-treatment, n=16, P=0.007) [fold] | expression of key genes involved in HR (BRCA1 and RAD50) and NHEJ (Ku80, DNA-PK and NHEJ1) (A549 cells) | further increase in H2AX staining post-seliciclib (H2AX staining; day 11 vs day 8, n=12, P=0.069) [fold] |
| --- | --- | --- | --- | --- | --- | --- | --- |
| CCCCCCCCCCCCCCCC(=O)Nc1ccn(C2O[C@H](CO)[C@@H](O)[C@@H]2C#N)c(=O)n1 (stereo partly drawn) [sapacitabine, 1-(2-C-cyano-2-dioxy-β-D-arabino-pentofuranosyl)-N^4-palmitoyl cytosine] | superior to either gemcitabine or 5-FU | myelosuppression | well tolerated | 50 | 2.3 |  |  |
| CC[C@H](CO)Nc1nc(NCc2ccccc2)c2ncn(C(C)C)c2n1 [seliciclib, 6-benzylamino-2-[(R)-1-ethyl-2-hydroxyethylamino]-9-isopropylpurine] |  |  |  | 1200 |  | significant downregulation | 0.58 |
